Results from US20250176599A1, “FLAVOR COMPOSITION AND FOOD AND BEVERAGE” (TAKASAGO INTERNATIONAL CORPORATION, priority 2021, published 2025).

Columns and labels:
[1] = Overall conclusion of the sensory evaluation across aqueous solutions I to VI
Method in brief: (§1)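 Eight trained panelists tasted water solutions of the off-flavor compounds spiked with nootkatone. Masking-agent taste was scored absolutely from 0 (not sensed) to 4 (strong). Off-flavor was scored relatively, anchored at 4 for the solution without masker and 0 for ion-exchanged water.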

[2] = Sensory evaluation of aqueous solution III containing 1-octen-3-one 1 ppb: off-flavor intensity and masking component intensity; details: 1-octen-3-one 1 ppb, average score 0-4
Method in brief: as §1

[3] = Sensory evaluation of aqueous solution IV containing 1,5-octadien-3-one 100 ppt: off-flavor intensity and masking component intensity; details: aqueous solution IV, 1,5-octadien-3-one 100 ppt, average score 0-4
Method in brief: as §1

[4] = Sensory evaluation of aqueous solution I containing (E)-2-nonenal 1 ppb: off-flavor intensity and masking component intensity; details: (E)-2-nonenal 1 ppb, average score 0-4
Method in brief: as §1

[5] = Sensory evaluation of aqueous solution VI containing 1,5-octadien-3-ol 10 ppb: off-flavor intensity and masking component intensity; details: aqueous solution VI, 1,5-octadien-3-ol 10 ppb, average score 0-4
Method in brief: as §1

[6] = Overall conclusion of the sensory evaluation across mayonnaises I and II
Method: (§2) To commercially available mayonnaise (“Kewpie Mayonnaise” manufactured by Kewpie Corporation), each degradation component was added to prepare degradation component-added mayonnaises I and II at the concentrations listed in Table 20. To these degradation component-added mayonnaises, oleic acid was added at the concentrations listed in Table 21 to confirm the intensity of the off-flavor (masking effect) and the intensity of the masking components (impact on the flavor of the mayonnaise itself) for each sample.
(§3) Six experienced panelists were selected to conduct a sensory evaluation similar to that of Example 1.

[7] = Sensory evaluation of degradation component-added mayonnaise I (1-octen-3-ol 200 ppb); details: average panel score
Method: as §2, §3

[8] = Sensory evaluation of aqueous solution II containing (E)-2-octenal 10 ppb: off-flavor intensity and masking component intensity; details: (E)-2-octenal 10 ppb, average score 0-4
Method in brief: as §1

[9] = Sensory evaluation of aqueous solution V containing 1-octen-3-ol 10 ppb: off-flavor intensity and masking component intensity; details: 1-octen-3-ol 10 ppb, average score 0-4
Method in brief: as §1

CCCCCCCC/C=C\CCCCCCCC(=O)O [Oleic Acid, oleic acid]
concentration that masks the off-flavor and does not affect the flavor of the food and/or beverage itself, lower limit [1]: ≥ 10 ppb
concentration that masks the off-flavor and does not affect the flavor of the food and/or beverage itself, upper limit [1]: ≤ 10 ppm
Off-Flavor Intensity ([2]; 1 ppm added): 2.8 points
Off-Flavor Intensity ([2]; 5 ppm added): 2.4 points
Off-Flavor Intensity ([2]; 10 ppb added): 3.5 points
Off-Flavor Intensity ([2]; 10 ppm added): 1.9 points
Off-Flavor Intensity ([2]; 50 ppb added): 3.4 points
Off-Flavor Intensity ([2]; 100 ppb added): 3.3 points
Off-Flavor Intensity ([2]; 500 ppb added): 2.5 points
Off-Flavor Intensity ([3]; 1 ppm added): 2.0 points
Off-Flavor Intensity ([3]; 5 ppm added): 1.9 points
Off-Flavor Intensity ([3]; 10 ppb added): 3.4 points
Off-Flavor Intensity ([3]; 10 ppm added): 1.5 points
Off-Flavor Intensity ([3]; 50 ppb added): 3.3 points
Off-Flavor Intensity ([3]; 100 ppb added): 2.9 points
Off-Flavor Intensity ([3]; 500 ppb added): 2.5 points
Off-Flavor Intensity ([4]; 1 ppm added): 1.8 points
Off-Flavor Intensity ([4]; 5 ppm added): 1.4 points
Off-Flavor Intensity ([4]; 10 ppb added): 3.5 points
Off-Flavor Intensity ([4]; 10 ppm added): 1.3 points
Off-Flavor Intensity ([4]; 50 ppb added): 3.1 points
Off-Flavor Intensity ([4]; 100 ppb added): 2.8 points
Off-Flavor Intensity ([4]; 500 ppb added): 2.4 points
Off-Flavor Intensity ([5]; 1 ppm added): 1.3 points
Off-Flavor Intensity ([5]; 5 ppm added): 1.5 points
Off-Flavor Intensity ([5]; 10 ppb added): 2.6 points
Off-Flavor Intensity ([5]; 10 ppm added): 1.3 points
Off-Flavor Intensity ([5]; 50 ppb added): 2.4 points
Off-Flavor Intensity ([5]; 100 ppb added): 1.9 points
Off-Flavor Intensity ([5]; 500 ppb added): 1.6 points
concentration that masks the off-flavor and does not affect the flavor of the mayonnaise itself, lower limit [6]: ≥ 500 ppb
concentration that masks the off-flavor and does not affect the flavor of the mayonnaise itself, upper limit [6]: ≤ 100 ppm
Masking Component Intensity ([7]; 1 ppm added): 0.3
Off-Flavor Intensity ([7]; 1 ppm added): 1.8
Masking Component Intensity ([7]; 5 ppm added): 0.7
Off-Flavor Intensity ([7]; 5 ppm added): 1.7
Masking Component Intensity ([7]; 10 ppm added): 0.8
Off-Flavor Intensity ([7]; 10 ppm added): 1.2
Masking Component Intensity ([7]; 50 ppm added): 1.7
Off-Flavor Intensity ([7]; 50 ppm added): 0.8
Masking Component Intensity ([7]; 100 ppb added): 0.0
Off-Flavor Intensity ([7]; 100 ppb added): 3.3
Masking Component Intensity ([7]; 100 ppm added): 2.2
Off-Flavor Intensity ([7]; 100 ppm added): 0.5
Masking Component Intensity ([7]; 500 ppb added): 0.2
Off-Flavor Intensity ([7]; 500 ppb added): 2.5
Off-Flavor Intensity ([8]; 1 ppm added): 1.6 points
Off-Flavor Intensity ([8]; 5 ppm added): 1.1 points
Off-Flavor Intensity ([8]; 10 ppb added): 2.8 points
Off-Flavor Intensity ([8]; 10 ppm added): 1.1 points
Off-Flavor Intensity ([8]; 50 ppb added): 2.5 points
Off-Flavor Intensity ([8]; 100 ppb added): 1.9 points
Off-Flavor Intensity ([8]; 500 ppb added): 1.5 points
Off-Flavor Intensity ([9]; 1 ppm added): 1.9 points
Off-Flavor Intensity ([9]; 5 ppm added): 1.8 points
Off-Flavor Intensity ([9]; 10 ppb added): 3.4 points
Off-Flavor Intensity ([9]; 10 ppm added): 1.1 points
Off-Flavor Intensity ([9]; 50 ppb added): 2.6 points
Off-Flavor Intensity ([9]; 100 ppb added): 2.9 points
Off-Flavor Intensity ([9]; 500 ppb added): 2.3 points
